According to ChEMBL document CHEMBL1909046, “DrugMatrix in vitro pharmacology data”:

Legend:
[1] = target: T1, Type-2 angiotensin II receptor (Homo sapiens, UniProt P50052); experiment: biochemical; format: cell-based, CHO-K1; conditions: cho-k1; note: in other assays of this panel Not Active means under 50% inhibition at 10 µM
T1 sequence (P50052 whole entry): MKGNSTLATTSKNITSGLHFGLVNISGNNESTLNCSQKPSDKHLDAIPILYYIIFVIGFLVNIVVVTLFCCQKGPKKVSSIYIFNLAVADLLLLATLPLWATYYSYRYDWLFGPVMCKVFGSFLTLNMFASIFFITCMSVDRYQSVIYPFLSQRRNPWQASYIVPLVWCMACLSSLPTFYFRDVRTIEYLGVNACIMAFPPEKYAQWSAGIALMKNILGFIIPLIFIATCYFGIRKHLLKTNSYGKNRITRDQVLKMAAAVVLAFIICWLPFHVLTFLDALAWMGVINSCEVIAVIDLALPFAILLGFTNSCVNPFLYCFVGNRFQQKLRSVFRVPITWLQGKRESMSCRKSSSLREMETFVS

[2] = target: Beta-1 adrenergic receptor (Homo sapiens, UniProt P08588); experiment: DRUGMATRIX: Adrenergic beta1 radioligand binding (ligand: [125I] Cyanopindolol); format: cell membranes, CHO-K1, Membrane; conditions: cho-k1; Not Active = under 50% inhibition at 10 µM
Endothelin-1 receptor = target: T2, Endothelin-1 receptor (Homo sapiens, UniProt P25101); format: cell membranes, Membrane; conditions: cho-k1; note: in other assays of this panel Not Active means under 50% inhibition at 10 µM
T2 sequence (P25101 whole entry): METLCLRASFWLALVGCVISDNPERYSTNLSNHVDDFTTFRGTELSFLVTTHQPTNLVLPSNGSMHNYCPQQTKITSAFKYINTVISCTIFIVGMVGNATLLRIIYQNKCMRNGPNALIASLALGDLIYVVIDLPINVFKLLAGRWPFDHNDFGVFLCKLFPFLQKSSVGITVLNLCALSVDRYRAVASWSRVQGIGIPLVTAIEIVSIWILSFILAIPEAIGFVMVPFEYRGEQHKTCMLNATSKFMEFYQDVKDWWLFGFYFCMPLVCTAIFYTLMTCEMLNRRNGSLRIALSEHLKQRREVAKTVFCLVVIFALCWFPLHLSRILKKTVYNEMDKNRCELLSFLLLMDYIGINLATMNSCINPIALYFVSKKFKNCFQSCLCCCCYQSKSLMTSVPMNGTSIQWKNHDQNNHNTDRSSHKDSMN

Melanocortin receptor 4 = Melanocortin receptor 4 (Homo sapiens, UniProt P32245); format: cell membranes, Membrane; conditions: hek293; note: in other assays of this panel Not Active means under 50% inhibition at 10 µM
[3] = target: Beta-2 adrenergic receptor (Homo sapiens, UniProt P07550); experiment: DRUGMATRIX: Adrenergic beta2 radioligand binding (ligand: [3H] CGP-12177); format: cell membranes, CHO, Membrane; conditions: cho; Not Active = under 50% inhibition at 10 µM
[4] = target: T3, Alpha-1D adrenergic receptor (Homo sapiens, UniProt P25100); format: cell membranes, HEK293, Membrane; conditions: for Ki: read-out: Ki; for all read-outs here: in other assays of this panel Not Active means under 50% inhibition at 10 µM
T3 sequence (P25100 whole entry): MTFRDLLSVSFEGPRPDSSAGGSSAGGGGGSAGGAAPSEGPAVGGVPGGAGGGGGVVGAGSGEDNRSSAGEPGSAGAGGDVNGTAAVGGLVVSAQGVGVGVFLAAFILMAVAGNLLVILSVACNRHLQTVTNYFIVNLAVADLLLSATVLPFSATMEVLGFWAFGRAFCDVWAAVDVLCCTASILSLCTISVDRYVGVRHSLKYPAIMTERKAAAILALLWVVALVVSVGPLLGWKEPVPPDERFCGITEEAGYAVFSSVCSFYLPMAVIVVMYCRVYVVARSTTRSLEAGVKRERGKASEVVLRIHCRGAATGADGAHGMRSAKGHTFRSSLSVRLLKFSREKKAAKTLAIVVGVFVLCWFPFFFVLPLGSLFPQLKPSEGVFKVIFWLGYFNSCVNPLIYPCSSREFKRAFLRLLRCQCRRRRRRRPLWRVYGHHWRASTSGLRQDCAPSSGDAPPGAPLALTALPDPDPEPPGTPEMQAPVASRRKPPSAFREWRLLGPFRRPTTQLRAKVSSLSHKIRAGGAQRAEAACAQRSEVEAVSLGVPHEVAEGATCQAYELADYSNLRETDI

Sequence of Beta-1 adrenergic receptor (P08588 whole entry): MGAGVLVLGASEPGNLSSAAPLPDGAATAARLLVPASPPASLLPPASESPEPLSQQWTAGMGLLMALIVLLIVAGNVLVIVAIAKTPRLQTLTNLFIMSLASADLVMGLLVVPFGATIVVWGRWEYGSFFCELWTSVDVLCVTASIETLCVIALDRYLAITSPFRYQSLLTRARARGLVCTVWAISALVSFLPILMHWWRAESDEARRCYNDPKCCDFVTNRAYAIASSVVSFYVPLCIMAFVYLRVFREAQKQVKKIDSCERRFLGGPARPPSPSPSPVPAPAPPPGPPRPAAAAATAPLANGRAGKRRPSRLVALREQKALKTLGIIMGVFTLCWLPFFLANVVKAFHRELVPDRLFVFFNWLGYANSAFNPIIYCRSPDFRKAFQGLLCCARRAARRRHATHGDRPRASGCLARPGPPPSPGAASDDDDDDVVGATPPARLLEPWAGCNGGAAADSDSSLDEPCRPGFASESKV
Sequence of Melanocortin receptor 4 (P32245 whole entry): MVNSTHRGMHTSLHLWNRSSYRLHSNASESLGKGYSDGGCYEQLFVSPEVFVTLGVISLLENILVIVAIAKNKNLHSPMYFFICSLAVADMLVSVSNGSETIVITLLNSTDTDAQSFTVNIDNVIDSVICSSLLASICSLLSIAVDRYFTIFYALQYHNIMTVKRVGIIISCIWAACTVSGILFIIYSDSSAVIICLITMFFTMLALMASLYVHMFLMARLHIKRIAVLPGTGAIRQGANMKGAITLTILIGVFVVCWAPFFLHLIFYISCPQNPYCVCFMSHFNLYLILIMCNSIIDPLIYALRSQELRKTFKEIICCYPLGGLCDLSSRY
Sequence of Beta-2 adrenergic receptor (P07550 whole entry): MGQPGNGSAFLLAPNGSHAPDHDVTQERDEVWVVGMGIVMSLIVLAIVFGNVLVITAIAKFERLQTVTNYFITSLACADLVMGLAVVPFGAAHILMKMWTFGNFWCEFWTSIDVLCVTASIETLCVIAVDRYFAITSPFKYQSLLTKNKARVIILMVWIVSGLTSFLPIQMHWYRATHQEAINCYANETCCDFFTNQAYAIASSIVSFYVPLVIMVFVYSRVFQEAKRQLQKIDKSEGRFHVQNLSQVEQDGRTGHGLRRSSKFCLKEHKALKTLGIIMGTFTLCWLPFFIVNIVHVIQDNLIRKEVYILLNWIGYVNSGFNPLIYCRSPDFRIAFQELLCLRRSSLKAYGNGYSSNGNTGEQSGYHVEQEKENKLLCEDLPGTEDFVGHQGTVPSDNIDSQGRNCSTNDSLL

COc1cccc2c1C(=O)c1c(O)c3c(c(O)c1C2=O)C[C@@](O)(C(C)=O)C[C@@H]3O[C@H]1C[C@H](N)[C@H](O)[C@H](C)O1 [DAUNORUBICIN]
Not Active: IC50 [1] | IC50 [2] | IC50 (Endothelin-1 receptor) | IC50 (Melanocortin receptor 4) | IC50 [3] | IC50 ([4]; hek293)

O=C(O)c1cc(-c2ccc(F)cc2F)ccc1O [DIFLUNISAL]
Not Active: IC50 [1] | IC50 [2] | IC50 (Endothelin-1 receptor) | IC50 (Melanocortin receptor 4) | IC50 [3] | IC50 ([4]; hek293)

C[S+](C)[O-] [DIMETHYL SULFOXIDE]
Not Active: IC50 [1] | IC50 [2] | IC50 (Endothelin-1 receptor) | IC50 (Melanocortin receptor 4) | IC50 [3] | IC50 ([4]; hek293)

CC1=NN(c2ccccc2)C(=O)C1 [EDARAVONE]
Not Active: IC50 [1] | IC50 [2] | IC50 (Endothelin-1 receptor) | IC50 (Melanocortin receptor 4) | IC50 [3] | IC50 ([4]; hek293)

CC(C)C[C@H]1C(=O)N2CCC[C@H]2[C@]2(O)O[C@](NC(=O)[C@@H]3C=C4c5cccc6[nH]cc(c56)C[C@H]4N(C)C3)(C(C)C)C(=O)N12 [ERGOCRYPTINE]
48 nM: IC50 ([4]; read-out: IC50)
Not Active: IC50 [1] | IC50 [2] | IC50 (Endothelin-1 receptor) | IC50 (Melanocortin receptor 4) | IC50 [3]
24 nM: Ki [4]

C[C@]12CC[C@@H]3c4ccc(O)cc4CC[C@H]3[C@@H]1C[C@@H](O)[C@@H]2O [ESTRIOL]
Not Active: IC50 [1] | IC50 [2] | IC50 (Endothelin-1 receptor) | IC50 (Melanocortin receptor 4) | IC50 [3] | IC50 ([4]; hek293)

C#C[C@]1(O)CC[C@H]2[C@@H]3CCC4=CC(=O)CC[C@]4(C)[C@H]3CC[C@@]21C [ETHISTERONE]
Not Active: IC50 [1] | IC50 [2] | IC50 (Endothelin-1 receptor) | IC50 (Melanocortin receptor 4) | IC50 [3] | IC50 ([4]; hek293)

CC(O)(P(=O)(O)O)P(=O)(O)O [ETIDRONIC ACID]
Not Active: IC50 [1] | IC50 [2] | IC50 (Endothelin-1 receptor) | IC50 (Melanocortin receptor 4) | IC50 [3] | IC50 ([4]; hek293)

CC(C)(C(=O)O)c1ccc(C(O)CCCN2CCC(C(O)(c3ccccc3)c3ccccc3)CC2)cc1 (configuration not stated) [FEXOFENADINE]
Not Active: IC50 [1] | IC50 [2] | IC50 (Endothelin-1 receptor) | IC50 (Melanocortin receptor 4) | IC50 [3] | IC50 ([4]; hek293)

CN1CCN(c2c(F)cc3c(=O)c(C(=O)O)cn(CCF)c3c2F)CC1 [FLEROXACIN]
Not Active: IC50 [1] | IC50 [2] | IC50 (Endothelin-1 receptor) | IC50 (Melanocortin receptor 4) | IC50 [3] | IC50 ([4]; hek293)

O=c1[nH]c(=O)n([C@H]2C[C@H](O)[C@@H](CO)O2)cc1F [FLOXURIDINE]
Not Active: IC50 [1] | IC50 [2] | IC50 (Endothelin-1 receptor) | IC50 (Melanocortin receptor 4) | IC50 [3] | IC50 ([4]; hek293)

COC(=O)Nc1nc2cc(C(=O)c3ccc(F)cc3)ccc2[nH]1 [FLUBENDAZOLE]
Not Active: IC50 [1] | IC50 [2] | IC50 (Endothelin-1 receptor) | IC50 (Melanocortin receptor 4) | IC50 [3] | IC50 ([4]; hek293)

CC(=O)OCC(=O)[C@@]1(O)CC[C@H]2[C@@H]3CCC4=CC(=O)CC[C@]4(C)[C@@]3(F)[C@@H](O)C[C@@]21C [FLUDROCORTISONE ACETATE]
Not Active: IC50 [1] | IC50 [2] | IC50 (Endothelin-1 receptor) | IC50 (Melanocortin receptor 4) | IC50 [3] | IC50 ([4]; hek293)

CCOC(=O)c1ncn2c1CN(C)C(=O)c1cc(F)ccc1-2 [FLUMAZENIL]
Not Active: IC50 [1] | IC50 [2] | IC50 (Endothelin-1 receptor) | IC50 (Melanocortin receptor 4) | IC50 [3] | IC50 ([4]; hek293)

CC(=O)OCC(=O)[C@@]12OC(C)(C)O[C@@H]1C[C@H]1[C@@H]3C[C@H](F)C4=CC(=O)C=C[C@]4(C)[C@@]3(F)[C@@H](O)C[C@@]12C [FLUOCINONIDE]
Not Active: IC50 [1] | IC50 [2] | IC50 (Endothelin-1 receptor) | IC50 (Melanocortin receptor 4) | IC50 [3] | IC50 ([4]; hek293)

O=C(O)P(=O)(O)O [FOSCARNET]
Not Active: IC50 [1] | IC50 [2] | IC50 (Endothelin-1 receptor) | IC50 (Melanocortin receptor 4) | IC50 [3] | IC50 ([4]; hek293)

Cc1ccc(C)c(OCCCC(C)(C)C(=O)O)c1 [GEMFIBROZIL]
Not Active: IC50 [1] | IC50 [2] | IC50 (Endothelin-1 receptor) | IC50 (Melanocortin receptor 4) | IC50 [3] | IC50 ([4]; hek293)

O=c1c(-c2ccc(O)cc2)coc2cc(O)cc(O)c12 [GENISTEIN]
Not Active: IC50 [1] | IC50 [2] | IC50 (Endothelin-1 receptor) | IC50 (Melanocortin receptor 4) | IC50 [3] | IC50 ([4]; hek293)

CCC1=C(C)CN(C(=O)NCCc2ccc(S(=O)(=O)NC(=O)N[C@H]3CC[C@H](C)CC3)cc2)C1=O [GLIMEPIRIDE]
Not Active: IC50 [1] | IC50 [2] | IC50 (Endothelin-1 receptor) | IC50 (Melanocortin receptor 4) | IC50 [3] | IC50 ([4]; hek293)

Nc1cc(-c2ccncc2)c[nH]c1=O [INAMRINONE]
Not Active: IC50 [1] | IC50 [2] | IC50 (Endothelin-1 receptor) | IC50 (Melanocortin receptor 4) | IC50 [3] | IC50 ([4]; hek293)

CCCCC1=NC2(CCCC2)C(=O)N1Cc1ccc(-c2ccccc2-c2nnn[nH]2)cc1 [IRBESARTAN]
Not Active: IC50 [1] | IC50 [2] | IC50 (Endothelin-1 receptor) | IC50 (Melanocortin receptor 4) | IC50 [3] | IC50 ([4]; hek293)

N[C@@H](Cn1ccc(=O)c(O)c1)C(=O)O [L-MIMOSINE]
Not Active: IC50 [1] | IC50 [2] | IC50 (Endothelin-1 receptor) | IC50 (Melanocortin receptor 4) | IC50 [3] | IC50 ([4]; hek293)

C[N+](C)(C)C[C@H](O)CC(=O)[O-] [LEVOCARNITINE]
Not Active: IC50 [1] | IC50 [2] | IC50 (Endothelin-1 receptor) | IC50 (Melanocortin receptor 4) | IC50 [3] | IC50 ([4]; hek293)

C[C@H]1COc2c(N3CCN(C)CC3)c(F)cc3c(=O)c(C(=O)O)cn1c23.C[C@H]1COc2c(N3CCN(C)CC3)c(F)cc3c(=O)c(C(=O)O)cn1c23.O [LEVOFLOXACIN]
Not Active: IC50 [1] | IC50 [2] | IC50 (Endothelin-1 receptor) | IC50 (Melanocortin receptor 4) | IC50 [3] | IC50 ([4]; hek293)

CCn1cc(C(=O)O)c(=O)c2cc(F)c(N3CCNC(C)C3)c(F)c21 (configuration not stated) [LOMEFLOXACIN]
Not Active: IC50 [1] | IC50 [2] | IC50 (Endothelin-1 receptor) | IC50 (Melanocortin receptor 4) | IC50 [3] | IC50 ([4]; hek293)

CN1CCCC(CN2c3ccccc3Sc3ccccc32)C1 (configuration not stated) [MEPAZINE]
137 nM: IC50 ([4]; read-out: IC50)
67 nM: Ki [4]
Not Active: IC50 [1] | IC50 [2] | IC50 (Endothelin-1 receptor) | IC50 (Melanocortin receptor 4) | IC50 [3]

Cc1cccc(C)c1NC(=O)C1CCCCN1C (configuration not stated) [MEPIVACAINE]
Not Active: IC50 [1] | IC50 [2] | IC50 (Endothelin-1 receptor) | IC50 (Melanocortin receptor 4) | IC50 [3] | IC50 ([4]; hek293)

CN(C)C(=N)NC(=N)N [METFORMIN]
Not Active: IC50 [1] | IC50 [2] | IC50 (Endothelin-1 receptor) | IC50 (Melanocortin receptor 4) | IC50 [3] | IC50 ([4]; hek293)

CC(C)(C)NCC(O)COc1cccc2c1CC(O)C(O)C2 (configuration not stated) [NADOLOL]
Not Active: IC50 [1] | IC50 [2] | IC50 (Endothelin-1 receptor) | IC50 (Melanocortin receptor 4) | IC50 [3] | IC50 ([4]; hek293)

C[C@]12CC[C@H]3[C@@H](CCC4=CC(=O)CC[C@@H]43)[C@@H]1CC[C@@H]2O [NANDROLONE]
Not Active: IC50 [1] | IC50 [2] | IC50 (Endothelin-1 receptor) | IC50 (Melanocortin receptor 4) | IC50 [3] | IC50 ([4]; hek293)
